This test addresses α3β4 nicotinic acetylcholine receptor (mouse) (Mus musculus, UniProt Q8R493+Q8R4G9). Briefly: two-electrode voltage clamp of Xenopus oocytes, block of ACh. Type of test: cell-based. (Two-electrode voltage clamp is typically applied to oocytes expressing channels or transporters.)

α3β4 nicotinic acetylcholine receptor (mouse), sequence (Q8R4G9 26-499): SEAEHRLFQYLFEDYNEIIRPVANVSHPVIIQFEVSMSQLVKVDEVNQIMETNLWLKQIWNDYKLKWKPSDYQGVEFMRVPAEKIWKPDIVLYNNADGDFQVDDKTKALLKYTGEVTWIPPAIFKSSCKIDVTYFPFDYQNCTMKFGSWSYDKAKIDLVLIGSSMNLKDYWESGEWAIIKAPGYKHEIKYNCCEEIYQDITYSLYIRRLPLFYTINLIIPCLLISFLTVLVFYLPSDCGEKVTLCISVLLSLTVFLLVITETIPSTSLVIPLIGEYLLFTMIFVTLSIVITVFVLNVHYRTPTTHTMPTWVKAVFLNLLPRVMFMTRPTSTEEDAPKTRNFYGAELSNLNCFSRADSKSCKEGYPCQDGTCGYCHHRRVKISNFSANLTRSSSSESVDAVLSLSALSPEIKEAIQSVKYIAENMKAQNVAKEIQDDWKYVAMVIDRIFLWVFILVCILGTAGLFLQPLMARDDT
α3β4 nicotinic acetylcholine receptor (mouse), sequence (Q8R493 21-495): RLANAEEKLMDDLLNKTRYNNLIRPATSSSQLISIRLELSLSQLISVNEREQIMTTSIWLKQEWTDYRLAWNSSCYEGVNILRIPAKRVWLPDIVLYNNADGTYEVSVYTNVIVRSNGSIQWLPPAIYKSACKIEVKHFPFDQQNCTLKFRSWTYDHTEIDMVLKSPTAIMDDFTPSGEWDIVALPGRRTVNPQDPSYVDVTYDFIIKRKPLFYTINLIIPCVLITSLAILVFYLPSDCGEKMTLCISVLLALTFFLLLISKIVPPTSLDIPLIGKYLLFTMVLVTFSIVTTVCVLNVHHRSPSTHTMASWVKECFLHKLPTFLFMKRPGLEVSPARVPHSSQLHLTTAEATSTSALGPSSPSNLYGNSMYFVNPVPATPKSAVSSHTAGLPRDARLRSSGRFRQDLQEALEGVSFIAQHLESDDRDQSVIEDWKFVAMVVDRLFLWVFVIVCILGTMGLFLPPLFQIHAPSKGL

molleamine C [compound 3]: inhibition was half-maximal at 1.43 µM (IC50). That is a single-digit micromolar value.

What is called IC50 is the midpoint of a concentration-inhibition curve.

Source of the values: PMC8487611 (ACS chemical neuroscience, 2021).
